Data as given in patent publication US5057427A, “Method for resolution of stereoisomers” (Sepracor, Inc., priority 1988, dated 1991).
In brackets after ≈: the same amount, converted by molar mass. Counter-ions that a name gives are not always drawn.

Legend:
[1] = test system: Protease XXIII: from Aspergillus oryzae (Enzyme A); experiment: Homogeneous aqueous enzymatic resolution (ester hydrolysis) with Enzyme A; conditions: 100 mg enzyme A, 10 mmol ester in 100 ml 0.2 M phosphate buffer pH 7.0, 20-22° C., 20 hours
Procedure: 10.0 millimole (mmol) of ibuprofen substrate ester 1 (the methyl sulfonate derivative) was dissolved in 100 ml of 0.2 M phosphate buffer of the appropriate cation (sodium or potassium, to be the same as the substrate counterion) at pH 7.0. 100 mg of enzyme A, as the
commercial preparation, was added directly to this solution, and the reaction mixture was capped and then shaken briefly until all the enzyme preparation had dispersed or dissolved. The reaction mixture was then allowed to stand at ambient temperature (20°-22° C.) for 20 hours. […] The combined organic layers were backwashed twice with one volume of water, once with one volume of saturated NaCl solution, and then dried over MgSO4.
Evaporation of the ether under reduced pressure left the resolved ibuprofen acid product; no other purification was performed. The optical rotation was measured in EtOH at a concentration c=1.0 for the ibuprofen acid product.
In this Example, 0.010 mol of ibuprofen ester 3 (the propyl sulfonate derivative) was dissolved in 100 ml 0.2 M sodium phosphate buffer at pH 7.8, and 150 mg of the commercial enzyme A preparation was added. The reaction was then handled as described for Examples 6.2.1.1-6.2.1.7.
In this Example, 0.010 mol of ibuprofen ester 2 (the ethyl sulfonate ester in the form of its potassium salt) were dissolved in 125 ml of 0.2 M sodium phosphate buffer at pH 7.0, and 150 mg of enzyme A was added to the reaction mixture as the commercially supplied preparation. The reaction was allowed to proceed for 18 hours, and the resulting product mixture was then worked-up as described above for Examples 6.2.1.1-6.2.1.7.
150 mg of Protease XXIII (A), as the commercially available preparation, was added to the reaction mixture, the reaction vessel was capped, and the entire heterogeneous reaction mixture was shaken in a wrist-action shaker for 18 hours. […] This mixture was then extracted twice with 200 ml of diethyl ether. The combined organic layers were backwashed twice with one volume of water, once with one volume of saturated NaCl, and the organic phase was then dried over MgSO4. Evaporation of the ether under reduced pressure left the resolved naproxen acid. No further purification was performed. The optical rotation of the product was measured in CHCl3 at a concentration c=1.0.
0.010 mol of naproxen ester 8 (the potassium salt of the ethyl sulfonate ester) was dispersed in 125 ml of 0.2 M sodium phosphate buffer at pH 7.8. 150 mg of enzyme A, as the commercially available preparation, were added, and the reaction handled as described in Example 6.2.1.1.
0.010 mol of ibuprofen ester 6 (the compound) were dissolved in 100 ml of 0.2 M sodium phosphate buffer at pH 7.0. 100 mg of enzyme A was added as the commercially available preparation, and the reaction handled as described above in Examples 6.2.1.1-6.2.1.7.
2.0 gm (0.0058 mole) of naproxen ester 9 (the sulfomethyl compound) was dissolved in 400 ml of 50 mM sodium phosphate buffer at pH 7.5. To the reaction were added 100 mg of Protease XXIII (A) as the commercially available preparation. After the enzyme had dissolved, the reaction mixture was incubated at 25 degrees for 16 hours. The reaction mixture was then acidified to pH 1-2 by the careful dropwise addition of concentrated HCl, and then it was extracted with ether (3×150 ml). The aqueous layer was retained. The combined organic layers were backwashed with water (2×100 ml), and these aqueous washings were added to the previously retained aqueous layer of the reaction. The ether layer was then washed once with 100 ml of brine, and dried over MgSO4.

[2] = test system: protease Prozyme 6 (Enzyme F); experiment: Asymmetric hydrolysis in an extractive dispersion reactor (hexane) with Enzyme F; format: biochemical, Asperqillus oryzae; conditions: 100 mg Prozyme 6, 3.38 gm ester in 100 ml 0.2 M sodium phosphate buffer pH 7.0 and 100 ml hexane, room temperature, 3.5 hours
Procedure: In this Example, the hexane was dispersed in the reaction vessel to extract the inhibitory ibuprofen acid as it is formed. The reaction was started by adding 100 mg of the protease from the fungus Asperqillus oryzae (from Amano Enzyme Corporation, Prozyme 6, 60,000 units per mg of solid).
After 3.5 hours at room temperature with vigorous stirring, the solution was acidified to pH 2 and extracted with 2 volumes of hexane. The aqueous phase was saved for subsequent workup. The hexane phase was dried over MgSO4 and evaporated to dryness. The resolved ibuprofen product so recovered consisted of 490 mg of white powder, indicating 24% conversion. The optical rotation was -0.568° (c=1.015 in ethanol), indicating the R isomer of ibuprofen.

[3] = test system: protease Prozyme 6 (Enzyme F); experiment: Homogeneous aqueous enzymatic resolution (ester hydrolysis) with Enzyme F; format: biochemical, Asperqillus oryzae; conditions: 100 mg protease (F), 3.22 gm ester in 100 ml 0.2 M sodium phosphate buffer pH 7.0, room temperature, 20 hours
Procedure: (Prozyme 6) (F) added. The enzymatic reaction mixtures were capped and briefly shaken until all the substrate had dissolved, and the enzyme had completely dissolved or dispersed. […] Evaporation of the ether left a white solid. Rotations were measured at c=1 in CHCl3.
The enzymatic reaction mixtures were capped and briefly shaken until all the substrate had dissolved, and the enzyme had completely dissolved or dispersed. […] Evaporation of the ether left a white solid. Rotations were measured at c=1 in CHCl3.
The reaction was started by adding 100 mg of the protease (F) from the fungus Asperqillus oryzae (from Amano Enzyme Corporation, Prozyme 6, 60,000 units per mg of solid).
After 20 hours at room temperature, the solution was acidified to pH 2 and extracted with 3 volumes of diethyl ether. The aqueous phase was saved for subsequent workup. The ether phase was washed with two volumes of distilled water and then one volume of saturated sodium chloride, and then it was dried over MgSO4 and subsequently evaporated to dryness. The resolved ibuprofen product recovered was 930 mg of white powder, indicating 45% conversion of racemic ester to acid. The optical rotation was -0.580° (measured at c=1 in ethanol), indicating the R isomer of ibuprofen.
35 mg of protease Enzyme F, as the commercial preparation Prozyme 6, were added to the aqueous solution. The reaction flask was capped, and briefly shaken until all the enzyme had dissolved or dispersed. […] The resulting mixture was diluted with one volume of water and was extracted with diethyl ether (2 times 200 ml). The ether layers were combined and backwashed with water (2 times 200 ml), saturated NaCl solution (200 ml), and then dried over MgSO4.
In this control run, a 0.5 M ester solution of (1) was prepared in 325 ml of 0.1 M sodium phosphate buffer (pH 7.0). The reaction was started by adding 3 gm of the above enzyme (F). The pH was controlled at 7.0 with 8.22 M sodium hydroxide. After 6.49 hours at 30° C., 6.63 ml of hydroxide were added, indicating 37.7% conversion. […]

[4] = target: T1, Protease XVI: from Bacillus subtilis (Enzyme C) (Bacillus subtilis, UniProt P04189); experiment: Homogeneous aqueous enzymatic resolution (ester hydrolysis) with Enzyme C; format: biochemical; conditions: acid product; 100 mg enzyme C, 10 mmol ester in 100 ml 0.2 M phosphate buffer pH 7.0, 20-22° C., 20 hours
T1 sequence (P04189 107-381): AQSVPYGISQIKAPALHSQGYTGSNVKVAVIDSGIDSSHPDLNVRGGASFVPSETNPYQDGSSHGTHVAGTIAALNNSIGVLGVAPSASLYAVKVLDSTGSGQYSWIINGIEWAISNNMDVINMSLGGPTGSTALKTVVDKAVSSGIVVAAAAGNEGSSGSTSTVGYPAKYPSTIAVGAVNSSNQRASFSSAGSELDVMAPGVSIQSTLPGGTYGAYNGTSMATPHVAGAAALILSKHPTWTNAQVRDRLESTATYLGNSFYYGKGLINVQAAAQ

[5] = target: T2, Protease VIII: "Subtilopeptidase A" (subtilisin Carlsberg) (Enzyme B) (Bacillus licheniformis, UniProt P00780); experiment: Homogeneous aqueous enzymatic resolution (ester hydrolysis) with Enzyme B; format: biochemical; conditions: 100 mg enzyme B, 10 mmol ester in 100 ml 0.2 M phosphate buffer pH 7.0, 20-22° C., 20 hours
T2 sequence (P00780 106-379): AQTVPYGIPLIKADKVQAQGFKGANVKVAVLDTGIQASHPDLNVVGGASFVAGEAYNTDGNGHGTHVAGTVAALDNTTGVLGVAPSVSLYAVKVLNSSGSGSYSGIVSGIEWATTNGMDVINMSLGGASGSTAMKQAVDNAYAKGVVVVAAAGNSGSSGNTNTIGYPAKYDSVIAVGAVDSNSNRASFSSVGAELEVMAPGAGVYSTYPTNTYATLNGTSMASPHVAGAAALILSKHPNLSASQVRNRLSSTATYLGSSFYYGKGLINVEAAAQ

[6] = target: T3, Protease XXVII: "Nagarse" (Enzyme D) (Bacillus amyloliquefaciens, UniProt P00782); experiment: Homogeneous aqueous enzymatic resolution (ester hydrolysis) with Enzyme D; format: biochemical; conditions: 100 mg enzyme D, 10 mmol ester in 100 ml 0.2 M phosphate buffer pH 7.0, 20-22° C., 20 hours
T3 sequence (P00782 108-382): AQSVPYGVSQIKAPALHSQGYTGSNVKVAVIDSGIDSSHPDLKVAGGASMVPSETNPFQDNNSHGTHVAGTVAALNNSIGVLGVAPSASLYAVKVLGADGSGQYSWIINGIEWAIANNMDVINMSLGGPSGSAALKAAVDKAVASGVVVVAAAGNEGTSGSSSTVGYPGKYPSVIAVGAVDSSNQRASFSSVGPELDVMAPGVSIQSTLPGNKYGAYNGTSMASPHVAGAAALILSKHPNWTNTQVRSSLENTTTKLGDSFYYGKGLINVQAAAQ

[7] = target: T2, Protease VIII: "Subtilopeptidase A" (subtilisin Carlsberg) (Enzyme B); experiment: Rates of hydrolysis of the two enantiomers (pH stat), Enzyme B; format: biochemical; conditions: 50 mM ester, 50 mM buffer pH 7.6, 0.1 ml of 50 mg/ml enzyme B
Procedure: (§1) 15 ml of a solution containing one enantiomer of the ester at a concentration of 50 mM, and Na buffer at 50 mM and pH 7.6 was observed using a pH stat device. 0.1 ml of a 50 mg/ml solution of enzyme B, made up from the commercially available preparation in 50 mM Na buffer at pH 7.6, were added. Rates of hydrolysis of both enantiomers of the ester compound were determined for the enzyme. The ratio of the rates of hydrolysis for the two enantiomers for the two enantiomers with respect to the enzyme indicate the stereospecificity of that enzyme's hydrolytic action on the racemic mixture of the ester. No evidence for the hydrolysis of the acetylthio ester portion of the substrate molecule was found.

[8] = test system: Protease XXIII: from Aspergillus oryzae (Enzyme A); experiment: Rates of hydrolysis of the two enantiomers (pH stat), Enzyme A; format: biochemical; conditions: for Rate (rate of hydrolysis): 50 mM ester, 50 mM buffer pH 7.6, 0.1 ml of 50 mg/ml enzyme A
Procedure: as §1, with “enzyme A,” for “enzyme B,”, “mM Na3 PO4” for “mM Na”

[9] = test system: Protease XXIV: bacterial protease (Enzyme H); experiment: Rates of hydrolysis of the two enantiomers (pH stat), Enzyme H; format: biochemical; conditions: for Rate (rate of hydrolysis): 50 mM ester, 50 mM buffer pH 7.6, 0.1 ml of 50 mg/ml Enzyme H
Procedure: as §1, with “Na3 PO4” for “Na”, “Enzyme H,” for “enzyme B,”

[10] = test system: Protease XIV: from Streptomyces griseus (Enzyme G); experiment: Rates of hydrolysis of the two enantiomers (pH stat), Enzyme G; format: biochemical; conditions: for Rate (rate of hydrolysis): 50 mM ester, 50 mM buffer pH 7.6, 0.1 ml of 50 mg/ml enzyme G
Procedure: as §1, with “mM, and Na3 PO4 buffer at” for “mM, and Na buffer at”, “solution of protease enzyme G,” for “solution of enzyme B,”, “protease enzyme G, made up” for “of enzyme B, made up”, “for the protease enzyme. The” for “for the enzyme. The”

[11] = target: T3, Protease XXVII: "Nagarse" (Enzyme D); experiment: Rates of hydrolysis of the two enantiomers (pH stat), Enzyme D; format: biochemical; conditions: 50 mM ester, 50 mM buffer pH 7.6, 0.1 ml of 50 mg/ml enzyme D
Procedure: as §1, with “Na3 PO4” for “Na”, “D,” for “B,”, “thioacetyl” for “acetylthio”

[12] = Solubility by absorbance of saturated solutions at 262 nm; format: physicochemical; conditions: saturated solution, pH 7, 5 mM phosphate buffer, room temperature

## CC(C)Cc1ccc(C(C)C(=O)OCS(=O)(=O)O)cc1 (centres unmarked) [Compound 1, Sodium Salt of 4-Sulfomethyl Ester of 2-(4-Isobutylphenyl)propanoic Acid]
[1]
  % CONVERSION: 37.9%
[1]; acid product
  % e.e.: > 99%
[2]
  conversion: 24%
[3]
  conversion of racemic ester to acid: 45%
[4]
  % e.e.: 70.7%
[5]
  % CONVERSION: 29.1%
[5]; acid product
  % e.e.: 44.6%
[6]
  % CONVERSION: 34.0%
[6]; acid product
  % e.e.: 37.7%

## CC(=O)SC[C@@H](C)C(=O)OCS(=O)(=O)O [Compound 14, Potassium Salt of the Sulfomethyl Ester of D-(-)-S-3-Acetylthio-2-methylpropanoic Acid]
[7]
  Rate (rate of hydrolysis): 65 umols/hr/mg
[8]
  Rate (rate of hydrolysis): 5.3 umols/hr/mg
[9]
  Rate (rate of hydrolysis): 61 umols/hr/mg
[10]
  Rate (rate of hydrolysis): 63 umols/hr/mg
[11]
  Rate (rate of hydrolysis): 27 umols/hr/mg

## COCCOC(=O)C(C)c1ccc(CC(C)C)cc1 (centres unmarked) [Methoxyethyl ester of ibuprofen]
[12]
  Solubility: 180 µM (≈ 47.6 µg/mL)

## CC(=O)SC[C@H](C)C(=O)OCS(=O)(=O)O [Compound 15, Potassium Salt of the Sulfomethyl Ester of L-(+)-S-3-Acetylthio-2-methylpropanoic Acid]
[7]
  Rate (rate of hydrolysis): 135 umols/hr/mg
[8]
  Rate (rate of hydrolysis): 12 umols/hr/mg
[8]; enzyme A, pH 7.6
  Rate Ratio L/D: 2.3
[9]
  Rate (rate of hydrolysis): 65 umols/hr/mg
[9]; Enzyme H, pH 7.6
  Rate Ratio L/D: 1.1
[10]
  Rate (rate of hydrolysis): 105 umols/hr/mg
[10]; enzyme G, pH 7.6
  Rate Ratio L/D: 1.7
[11]
  Rate (rate of hydrolysis): 29 umols/hr/mg
